Test results reported in patent US11642332B2, “(2R,4R)-5-(5′-chloro-2′-fluorobiphenyl-4-yl)-2-hydroxy-4-[(5-methyloxazole-2-carbonyl)amino]pentanoic acid” (THERAVANCE BIOPHARMA R&D IP, LLC, priority 2015, dated 2023).

Assays:
[1] = target: T1, human neprilysin (EC 3.4.24.11; NEP) (Homo sapiens, UniProt P08473); test: In vitro assay for the quantitation of inhibitor potency at human NEP; format: biochemical; details: recombinant human NEP, fluorogenic peptide substrate 10 μM, 37° C.; read-out: pKi at human NEP (converted)
T1 construct: purchased R&D Systems 1182-ZN
Procedure: The inhibitory activity at human neprilysin (EC 3.4.24.11; NEP) was determined as follows.
Recombinant human NEP was obtained commercially (R&D Systems, Minneapolis, Minn., catalog number 1182-ZN). The fluorogenic peptide substrate Mca-D-Arg-Arg-Leu-Dap-(Dnp)-OH (Medeiros et al. (1997) Braz. J. Med. Biol. Res. 30:1157-62; Anaspec, San Jose, Calif.) was used.
The assay was performed in 384-well white opaque plates at 37° C. using the fluorogenic peptide substrate at a concentration of 10 μM in Assay Buffer (50 mM HEPES, pH 7.5, 100 mM NaCl, 0.01% polyethylene glycol sorbitan monolaurate (Tween-20), 10 μM ZnSO4).
Test compounds were assayed over the range of concentrations from 10 μM to 20 pM. Test compounds were added to the enzyme and incubated for 30 minute at 37° C. prior to initiating the reaction by the addition of substrate. Reactions were terminated after 20 minutes of incubation at 37° C. by the addition of glacial acetic acid to a final concentration of 3.6% (v/v).
Plates were read on a fluorometer with excitation and emission wavelengths set to […]. Inhibition constants were obtained by nonlinear regression of the data using the equation (GraphPad Software, Inc., San Diego, Calif.): v=v0/[1+(I/K′)] where v is the reaction rate, v0 is the uninhibited reaction rate, I is the inhibitor concentration and K′ is the apparent inhibition constant.
The compounds were tested in this assay and found to have pKi values at human NEP as follows.

[2] = target: T2, NEP (Rattus norvegicus, UniProt P07861); test: PK-PD assay for NEP activity in conscious normotensive Sprague-Dawley rats (plasma cGMP after ANP bolus); format: in vivo, male Sprague-Dawley rats; details: rat plasma, 3 mg/kg oral, 15 min after IV ANP bolus (30 μg/kg); average of three determinations
T2 construct: Pre-cannulated male Sprague-Dawley rats (3 per compound evaluated) between 8 and 10 weeks of age were obtained from Harlan Laboratories; from tissue; host or cells: whole animal: conscious male Sprague-Dawley rats (Harlan Laboratories)
T2 sequence (P07861 1-750): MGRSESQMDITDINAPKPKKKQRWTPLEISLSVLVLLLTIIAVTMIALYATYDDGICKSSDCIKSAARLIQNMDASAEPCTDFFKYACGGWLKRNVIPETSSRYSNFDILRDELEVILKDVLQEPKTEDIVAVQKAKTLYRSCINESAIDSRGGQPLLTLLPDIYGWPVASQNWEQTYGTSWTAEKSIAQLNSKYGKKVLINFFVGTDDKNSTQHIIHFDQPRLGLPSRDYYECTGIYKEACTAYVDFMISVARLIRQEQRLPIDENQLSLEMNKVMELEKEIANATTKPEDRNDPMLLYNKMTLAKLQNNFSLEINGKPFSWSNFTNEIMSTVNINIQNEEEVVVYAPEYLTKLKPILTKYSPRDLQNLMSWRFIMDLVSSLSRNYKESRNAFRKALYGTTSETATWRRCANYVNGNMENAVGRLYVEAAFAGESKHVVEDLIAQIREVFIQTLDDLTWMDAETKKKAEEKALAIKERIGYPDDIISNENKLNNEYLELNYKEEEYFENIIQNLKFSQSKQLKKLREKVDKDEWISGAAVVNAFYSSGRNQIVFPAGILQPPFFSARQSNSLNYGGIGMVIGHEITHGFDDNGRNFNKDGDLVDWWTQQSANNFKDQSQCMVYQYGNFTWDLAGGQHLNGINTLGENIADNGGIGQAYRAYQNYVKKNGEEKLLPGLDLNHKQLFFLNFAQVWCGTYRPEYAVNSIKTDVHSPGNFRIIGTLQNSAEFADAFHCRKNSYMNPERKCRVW
Procedure: Appropriate masses of each test compound were added into a volume of vehicle (e.g. 5% sodium bicarbonate, 5% dextrose in H2O) such that the final concentration of each compound was appropriate to be dosed at 2 mL/kg. Note that a homogenous suspension was deemed to be acceptable for oral dosing.
Pre-cannulated male Sprague-Dawley rats (3 per compound evaluated) between 8 and 10 weeks of age were obtained from Harlan Laboratories (Indianapolis, Ind.). Rats received a single oral gavage of the dosing solution. The final dose was typically in the range of 3-30 mg/kg. Serial blood samples were harvested via the cannula implanted in the jugular vein at 3 minutes, 15 minutes, 35 minutes, 45 minutes, 1 hour, 2 hours, 4 hours, 6 hours, and 24 hours post-dose. Samples were collected into microtainer tubes containing EDTA as the anticoagulant and were processed to plasma by refrigerated centrifugation. Fifteen minutes prior to the 45 minute, 2 hour, 4 hour, 6 hour, and 24 hour samples, an IV bolus (30 μg/kg) of Atrial Natriuretic Peptide (ANP) was administered. […] Since binding of ANP to its receptor leads to activation of guanylyl cyclase and subsequent production of cyclic guanosine monophosphate (cGMP), the observation of elevated levels of cGMP (>20 nM) in plasma 15 minutes after the IV administration of the ANP bolus was interpreted as evidence of ongoing neprilysin inhibition. Elevated levels plasma cGMP levels 24 hours after dosing is an indicator of the duration pharmacologic effect, analogous to plasma clearance values as indicators of pharmacokinetic persistence.
Plasma samples were extracted with 3 volumes of MeCN containing a suitable internal standard. Extracts were reconstituted into 3 volumes of water containing 1% formic acid. Plasma cGMP and test compound concentrations were quantified in plasma samples by HPLC-coupled mass spectrometric detection.

[3] = IV/PO pharmacokinetic study in rats; format: in vivo, male Sprague-Dawley rats; parameters: AUC(0-t): concentration or dose not given beside the values; details: rat; for AUC(0-t) / bioavailability: male, Sprague-Dawley, plasma; for AUC(0-t): read-out: AUClast Mean; for bioavailability: PO vs IV AUClast; for CLlast Mean: dose divided by AUClast
Procedure: (§1) Each rat or dog PK study began with formulation of the test compound. Appropriate masses of each test compound were added into a volume of vehicle (e.g. 5% sodium bicarbonate, 5% dextrose in H2O) such that the final concentration of each compound was appropriate to be dosed at 2 mL/kg. Although a homogenous suspension were acceptable for oral dosing, intravenous dosing solutions were sterile-filtered (0.2 μm) prior to dosing to ensure no particulates were administered.
In the rat study, pre-cannulated male Sprague-Dawley rats (3 per route) between 8 and 10 weeks of age were obtained from Harlan Laboratories (Indianapolis, Ind.). Rats received either a single oral gavage or a single intravenous (via lateral tail vein) dose of the dosing solution. The final dose was typically 0.5-3 mg/kg. Serial blood samples were harvested via the cannula implanted in the jugular vein at 3 minutes, 15 minutes, 30 minutes, 1 hour, 2 hours, 4 hours, 6 hours, and 24 hours post-dose. Sampling was performed either manually or using automated blood samplers. Samples were collected into microtainer tubes containing EDTA as the anticoagulant and were processed to plasma by refrigerated centrifugation.
(§2) Plasma samples were extracted with 3 volumes of MeCN containing a suitable internal standard. Extracts were reconstituted into 3 volumes of water containing 1% formic acid, and analyzed via HPLC-coupled MS/MS. Plasma concentration-time data were analyzed using the Phoenix software (Pharsight Corp., St. Louis, Mo.) to calculate pharmacokinetic parameters.
(§3) Plasma clearance was determined from the intravenous arm of the study, and represents the rate at which plasma is cleared of drug. It is equal to the dose divided by the area under the plasma concentration-time curve. In addition to plasma clearance, it is also essential for an orally administered drug to reach efficacious systemic levels following oral delivery. Oral bioavailability is a measurement of plasma exposures following oral administration relative to exposures following intravenous administration.

[4] = IV/PO pharmacokinetic study in dogs; format: in vivo, male beagle dogs; parameters: AUC(0-t): concentration or dose not given beside the values; details: dog; for AUC(0-t) / bioavailability: male, beagle, plasma; for AUC(0-t): read-out: AUClast Mean; for bioavailability: PO vs IV AUClast
Procedure: as §1
In the dog study, male beagle dogs (3 per route) housed at Agilux Laboratories (Worcester, Mass.) and weighing between 7-12 kg received either a single oral gavage or a single intravenous (via indwelling catheter) dose of the dosing solution. The final dose was typically 0.1-2 mg/kg. Serial blood samples were harvested via direct venipuncture at 3 minutes, 15 minutes, 30 minutes, 1 hour, 2 hours, 4 hours, 6 hours, 8 hours, 12 hours, and 24 hours post-dose. All samples were collected manually into microtainer tubes containing EDTA as the anticoagulant and were processed to plasma by refrigerated centrifugation.
as §2, §3

[5] = Dynamic moisture sorption (DMS) assessment; format: physicochemical
Procedure: DMS measurements were performed using a VTI atmospheric microbalance, SGA-100 system (VTI Corp., Hialeah, Fla. 33016). A weighed sample was used and the humidity was lowest possible value (close to 0% relative humidity) at the start of the analysis. The DMS analysis consisted of a scan rate of 5% relative humidity/step over the full humidity range of 5-90%. The DMS run was performed isothermally at 25° C.

T1 sequence (P08473 52-750 limits assumed): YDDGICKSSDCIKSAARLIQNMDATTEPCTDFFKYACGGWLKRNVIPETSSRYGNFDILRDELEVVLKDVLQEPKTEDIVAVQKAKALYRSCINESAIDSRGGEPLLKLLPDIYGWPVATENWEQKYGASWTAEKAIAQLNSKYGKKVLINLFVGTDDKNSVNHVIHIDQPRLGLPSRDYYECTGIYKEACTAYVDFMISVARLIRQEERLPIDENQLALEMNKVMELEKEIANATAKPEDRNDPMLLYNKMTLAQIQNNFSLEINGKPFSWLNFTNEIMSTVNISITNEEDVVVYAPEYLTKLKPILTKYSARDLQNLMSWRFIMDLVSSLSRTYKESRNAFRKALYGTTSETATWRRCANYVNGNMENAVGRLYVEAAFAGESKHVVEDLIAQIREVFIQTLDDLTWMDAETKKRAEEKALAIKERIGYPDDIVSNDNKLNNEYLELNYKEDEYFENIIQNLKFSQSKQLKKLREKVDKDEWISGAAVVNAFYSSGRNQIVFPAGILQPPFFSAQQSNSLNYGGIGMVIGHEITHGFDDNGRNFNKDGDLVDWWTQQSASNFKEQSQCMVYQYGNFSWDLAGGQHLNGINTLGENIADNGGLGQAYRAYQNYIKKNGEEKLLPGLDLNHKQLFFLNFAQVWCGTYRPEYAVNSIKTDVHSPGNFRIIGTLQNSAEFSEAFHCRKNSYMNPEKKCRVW

| Ki [1] [nM] | cGMP Concentration 24 hours After Dosing Mean [2] [nM] | AUC(0-t) ([3]; IV) [ng·h/mL] | bioavailability [3] [%] | AUC(0-t) ([3]; PO) [ng·h/mL] | CLlast Mean ([3]; IV) [mL/min/kg] | CLlast Mean ([4]; IV) [mL/min/kg] | AUC(0-t) ([4]; IV) [ng·h/mL] | bioavailability [4] [%] | AUC(0-t) ([4]; PO) [ng·h/mL] | total moisture gain ([5]; 5-70% relative humidity, 25° C.) | total moisture gain ([5]; 5-90% relative humidity, 25° C.) | hygroscopicity (DMS isotherm) ([5]; 25° C.) | solid form (PXRD) after sorption-desorption cycles ([5]; after two sorption-desorption cycles) | Structure (SMILES) |
| --- | --- | --- | --- | --- | --- | --- | --- | --- | --- | --- | --- | --- | --- | --- |
| 0.126 | 45 | 480 | 20 | 110 | 28.3 | 10.8 | 160 | 99 | 160 |  |  |  |  | COc1cc(C(=O)N[C@H](Cc2ccc(-c3cc(Cl)ccc3F)cc2)C[C@@H](O)C(=O)O)on1 [Comparison Compound C2, (2R,4R)-5-(5′-Chloro-2′-fluorobiphenyl-4-yl)-2-hydroxy-4-[(3-methoxyisoxazole-5-carbonyl)amino]pentanoic Acid] |
| 0.794 | 47 | 1500 | 60 | 880 | 10 | 9.83 | 170 | 64 | 130 |  |  |  |  | CCc1ncc(C(=O)N[C@H](Cc2ccc(-c3cc(Cl)ccc3F)cc2)C[C@@H](C)C(=O)O)o1 [Comparison Compound C3, (2R,4S)-5-(5′-Chloro-2′-fluorobiphenyl-4-yl)-4-[(2-ethyloxazole-5-carbonyl)amino]-2-methylpentanoic Acid] |
| 0.501 | 53 | 830 | 60 | 500 | 11.2 | 25.7 | 70 | 42 | 30 |  |  |  |  | C[C@H](C[C@@H](Cc1ccc(-c2cc(Cl)ccc2F)cc1)NC(=O)c1cnco1)C(=O)O [Comparison Compound C4, (2R,4S)-5-(5′-Chloro-2′-fluorobiphenyl-4-yl)-2-methyl-4-[(oxazole-5-carbonyl)amino]pentanoic Acid] |
|  |  |  |  |  |  |  |  |  |  | less than 0.025 % by weight | less than 0.235 % by weight | non-hygroscopic solid | no change in form | Cc1cnc(C(=O)N[C@H](Cc2ccc(-c3cc(Cl)ccc3F)cc2)C[C@@H](O)C(=O)O)o1 [Compound 1′, (2R,4R)-5-(5′-Chloro-2′-fluorobiphenyl-4-yl)-2-hydroxy-4-[(5-methyloxazole-2-carbonyl)amino]pentanoic Acid] |
